We go through seven compounds from PubChem BioAssay (NCI).

Among the test systems are PC-3 prostate; U251 CNS; SNB-19 CNS; NCI-H522 lung; NCI/ADR-RES ovarian; SK-MEL-5 melanoma; RXF 393 renal; NCI-H23 lung; SN12C renal; HOP-92 NSCLC; MOLT-4 leukemia; NCI-H226 lung; OVCAR-5 ovarian; RPMI-8226 leukemia; HCT-116 colon; OVCAR-3 ovarian; SK-MEL-28 melanoma; T-47D breast.
Test in all cases: growth of human tumour cells (NCI), 48 h

Each structure is given as a SMILES string.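 In this assay, cells in 96-well plates receive the compound at five concentrations for 48 hours. Endpoints are linearly interpolated between the surrounding concentrations. At the GI50, growth is halved. At the TGI there is no net growth.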

In the case of `COn1cc(C=O)c2ccccc21`, the TGI in the experiment with PC-3 prostate, in the experiment on U251 CNS, with SNB-19 CNS, with NCI-H522 lung, in the experiment on NCI/ADR-RES ovarian and in the experiment on SK-MEL-5 melanoma was more than 100 µM each time. Further, the TGI was more than 100 µM in the experiment on RXF 393 renal; more than 100 µM with NCI-H23 lung; more than 100 µM in the experiment on SN12C renal; more than 100 µM in the experiment on HOP-92 NSCLC; more than 100 µM in the experiment on MOLT-4 leukemia; more than 84.9 µM with NCI-H226 lung. For the same compound, the TGI in the experiment with OVCAR-5 ovarian, in the experiment with RPMI-8226 leukemia, in the experiment with HCT-116 colon, with OVCAR-3 ovarian, in the experiment on SK-MEL-28 melanoma and with T-47D breast was more than 100 µM each time.
For the compound `O=C1NC(=O)C(c2c[nH]c3cc(Br)ccc23)=C1c1cn(C(c2ccccc2)(c2ccccc2)c2ccccc2)cn1`, the TGI was 50.4 µM in the experiment with PC-3 prostate; 24.7 µM in the experiment with U251 CNS; 97.4 µM with SNB-19 CNS; 34 µM in the experiment on NCI-H522 lung; more than 100 µM with NCI/ADR-RES ovarian; 22.9 µM with SK-MEL-5 melanoma. The TGI with RXF 393 renal is 37.5 µM; with NCI-H23 lung, 25.3 µM; with SN12C renal it was 31.8 µM; with HOP-92 NSCLC, 30.3 µM; in the experiment on MOLT-4 leukemia, 23.5 µM; in the experiment with NCI-H226 lung it was 19.3 µM. Besides, the TGI in the experiment with OVCAR-5 ovarian is 39 µM; in the experiment with RPMI-8226 leukemia, 36.8 µM; with HCT-116 colon, 23.6 µM; in the experiment with OVCAR-3 ovarian, more than 100 µM; with SK-MEL-28 melanoma, 92.6 µM; with T-47D breast, 93 µM.
With `CC(=O)c1csc2c1C(=O)c1scc(C(C)=O)c1C2=O`, the TGI in the experiment with PC-3 prostate is 7.49 µM; with U251 CNS, 2.9 µM; in the experiment on SNB-19 CNS, 3.32 µM; with NCI-H522 lung, 1.75 µM; in the experiment with NCI/ADR-RES ovarian it was 3.9 µM; in the experiment with SK-MEL-5 melanoma, 2.77 µM. Besides, the TGI was determined as 3.9 µM in the experiment on RXF 393 renal; 2.92 µM in the experiment on NCI-H23 lung; 3.28 µM in the experiment on SN12C renal; 3.92 µM with HOP-92 NSCLC; 1.13 µM with MOLT-4 leukemia; 4.14 µM in the experiment on NCI-H226 lung. The TGI with OVCAR-5 ovarian amounted to 3.45 µM; in the experiment with RPMI-8226 leukemia it was 3.14 µM; in the experiment on HCT-116 colon it was 4.85 µM; in the experiment with OVCAR-3 ovarian, 0.646 µM; with SK-MEL-28 melanoma, 3.64 µM; in the experiment on T-47D breast, 1.2 µM.
As for `O=C(NCCCNC(=O)c1ccc2c(O)c(O)ccc2c1)c1ccc2c(O)c(O)ccc2c1`, the TGI in the experiment with PC-3 prostate was more than 100 µM; in the experiment on U251 CNS, 64.4 µM; in the experiment on SNB-19 CNS, more than 70.9 µM; in the experiment on NCI-H522 lung it was 48.5 µM; in the experiment with NCI/ADR-RES ovarian, more than 100 µM; with SK-MEL-5 melanoma it was 46.9 µM. For the same compound, the TGI was more than 70 µM with RXF 393 renal; 52.8 µM in the experiment on NCI-H23 lung; 52.2 µM with SN12C renal; more than 100 µM with HOP-92 NSCLC; 52.3 µM in the experiment with MOLT-4 leukemia; more than 100 µM in the experiment on NCI-H226 lung. The TGI is more than 74.4 µM in the experiment on OVCAR-5 ovarian; more than 100 µM in the experiment on RPMI-8226 leukemia; more than 94.4 µM in the experiment with HCT-116 colon; 56.5 µM with OVCAR-3 ovarian; more than 100 µM in the experiment on SK-MEL-28 melanoma; more than 100 µM in the experiment on T-47D breast.
As for `N#CC(NNC(=O)Cc1ccccc1)c1ccccc1O` (stereo not drawn), the TGI was more than 100 µM in the experiment with PC-3 prostate; more than 92 µM in the experiment with U251 CNS; more than 80.8 µM with SNB-19 CNS; more than 41.1 µM in the experiment on NCI-H522 lung; more than 74.6 µM with NCI/ADR-RES ovarian; more than 72.2 µM in the experiment on SK-MEL-5 melanoma. The TGI with RXF 393 renal was more than 100 µM; in the experiment with NCI-H23 lung, 76.4 µM; in the experiment on SN12C renal, more than 100 µM; in the experiment with HOP-92 NSCLC, more than 92.1 µM; in the experiment with MOLT-4 leukemia it was more than 100 µM; in the experiment with NCI-H226 lung, 68 µM. The TGI was more than 90.9 µM in the experiment with OVCAR-5 ovarian; more than 100 µM with RPMI-8226 leukemia; more than 100 µM with HCT-116 colon; more than 43.6 µM in the experiment with OVCAR-3 ovarian; more than 100 µM in the experiment with SK-MEL-28 melanoma; more than 65.3 µM in the experiment with T-47D breast.
With `NS(=O)(=O)c1ccc(-n2c(-c3cccs3)nc3ccc(I)cc3c2=O)cc1`, the TGI with PC-3 prostate was determined as 81.9 µM; in the experiment with U251 CNS, 48.8 µM; with SNB-19 CNS it was 70.6 µM; with NCI-H522 lung, 39.1 µM; in the experiment on NCI/ADR-RES ovarian, 86.3 µM; with SK-MEL-5 melanoma, 47.1 µM. Also, the TGI with RXF 393 renal is 88.9 µM; with NCI-H23 lung it was 51.1 µM; with SN12C renal, 98.9 µM; in the experiment on HOP-92 NSCLC, 54.1 µM; in the experiment with MOLT-4 leukemia, more than 100 µM; in the experiment with NCI-H226 lung, 87.3 µM. Besides, the TGI amounted to 59.9 µM in the experiment on OVCAR-5 ovarian; 62.1 µM in the experiment with RPMI-8226 leukemia; 31 µM with HCT-116 colon; 35.1 µM in the experiment on OVCAR-3 ovarian; 55.5 µM in the experiment on SK-MEL-28 melanoma; 43.5 µM in the experiment on T-47D breast. Also, the GI50 is 25.3 µM in the experiment on RPMI-8226 leukemia and 19.2 µM in the experiment with T-47D breast.
With `C#CCn1ncc2c(SCc3ccccc3)ncnc21`, the TGI with PC-3 prostate, in the experiment on U251 CNS, in the experiment on SNB-19 CNS, in the experiment on NCI-H522 lung, in the experiment with NCI/ADR-RES ovarian and in the experiment with SK-MEL-5 melanoma was more than 100 µM in each case. Besides, the TGI is more than 100 µM in the experiment with RXF 393 renal; more than 100 µM with NCI-H23 lung; more than 100 µM with SN12C renal; more than 100 µM in the experiment with HOP-92 NSCLC; 39 µM in the experiment on MOLT-4 leukemia; more than 100 µM in the experiment on NCI-H226 lung. Further, the TGI is more than 100 µM in the experiment on OVCAR-5 ovarian; more than 100 µM in the experiment on RPMI-8226 leukemia; more than 100 µM with HCT-116 colon; more than 100 µM in the experiment on OVCAR-3 ovarian; more than 100 µM in the experiment on SK-MEL-28 melanoma; 27.1 µM with T-47D breast.
